# Tests used:
# [1] = system: αV integrin; test: Expression of αV integrin after shRNA transfection; format: cell-based, human; conditions: TSGH8301 and TSGH8301/EMP2-2 cell lines
# From the text: (§1) These two cell lines were transfected with small hairpin RNAs (shRNA) against αV and β3 integrins, respectively. In brief, TSGH8301 and TSGH8301/EMP2-2 cell lines were transfected with shRNAs of A1 or C1 against β3 integrin, shRNAs of H1 or G1 against αV integrin. The mRNA of EMP2 and TBP of these transfected cell lines were harvested for quantification by real-time PCR. The sequences of shRNAs of A1 (SEQ ID NO. 1), C1 (SEQ ID NO. 2), H1 (SEQ ID NO. 3) and G1 (SEQ ID NO. 4) are 5′-[…] CATAATGTTTTT-3′, 5′-[…] AACAGGGTTTTT-3′, 5′-[…] GTAAGGCTTTTTG-3′ and 5′-[…] TCCCTCGTTTTTG-3′, respectively. After transfections of shRNAs of A1, C1, H1 and G1, expressions of αV and β3 integrins in TSGH8301 and TSGH8301/EMP2-2 cell lines were repressed correspondingly. Besides, mRNA expression of EMP2 and TBP in TSGH8301 and TSGH8301/EMP2-2 cell lines without transfection was taken as controls (Ctl).
# [2] = system: β3 integrin; test: Expression of β3 integrin after shRNA transfection; format: cell-based, human; conditions: TSGH8301 and TSGH8301/EMP2-2 cell lines
# From the text: as §1
# [3] = system: EMP2 mRNA expression of RT4 bladder cancer cell line; test: Northern blotting of EMP2 mRNA expression in RT4 cells treated with genistein; format: cell-based; conditions: genistein 10 μg/mL, 24 hours, normalized to β-actin
# Protocol: FIG. 1A is a northern blotting figure showing the respective EMP2 mRNA expressions of RT4 bladder cancer cell line treated with genistein (10 μg/mL) for 24 hours (Isoflavone treatment group) or not (Control group).
# Please refer to FIG. 1A which is a northern blotting figure. […] That is, genistein, the isoflavone compound, can up-regulate the EMP2 mRNA expression of RT4 cells.
# [4] = system: EMP2 mRNA expression of TSGH8301 human bladder cancer cell line; test: Relative quantification of EMP2 mRNA expression in TSGH8301 cells incubated with genistein; format: cell-based
# Protocol: TSGH8301 cell lines were initially incubated with mediums containing 2 μM, 5 μM and 10 μM of genistein, respectively, and the respective EMP2 mRNA expressions was measured at sixth day, wherein mRNA expressions of housekeeping gene was taken as the baseline control.
# TSGH8301 cells were initially incubated with medium containing 15 μM of genistein and EMP2 mRNA expressions were measured at second, fourth and sixth days, respectively, wherein mRNA expressions of housekeeping gene of TSGH8301 cell lines were taken as the baseline control. With increase of incubating durations, EMP2 mRNA expression of TSGH8301 cells incubated with genistein was increased as shown in FIG. 3.
Compound,expression of αV integrin after shRNA transfection [1],expression of β3 integrin after shRNA transfection [2],further results
"G1: shRNA against αV integrin, 5′-CCGGCGAGGGAAGTTACTTCGGATTCTCGAGAATCCGAAGTAACT TCCCTCGTTTTTG-3′ (CCGGCGAGGGAAGTTACTTCGGATTCTCGAGAATCCGAAGTAACTTCCCTCGTTTTTG)",repressed,–,–
"A1: shRNA against β3 integrin, 5′-CCGGCATTATGTTTACAGAGGACAACTCGAGTTGTCCTCTGTAAA CATAATGTTTTT-3′ (CCGGCATTATGTTTACAGAGGACAACTCGAGTTGTCCTCTGTAAACATAATGTTTTT)",–,repressed,–
"C1: shRNA against β3 integrin, 5′-CCGGCCCTGTTACAATATGAAGAATCTCGAGATTCTTCATATTGT AACAGGGTTTTT-3′ (CCGGCCCTGTTACAATATGAAGAATCTCGAGATTCTTCATATTGTAACAGGGTTTTT)",–,repressed,–
O=c1c(-c2ccc(O)cc2)coc2cc(O)cc(O)c12 [genistein],–,–,"EMP2 mRNA expression compared with Control group (defined as 1) [3]: up to 3.5 times; EMP2 mRNA expression, dependence on genistein concentration ([4]; 2 μM, 5 μM and 10 μM genistein, measured at sixth day, P=0.03 two way ANOVA): dose-dependent up-regulation; EMP2 mRNA expression, dependence on incubating duration ([4]; 15 μM genistein, measured at second, fourth and sixth days, P=0.03 one way ANOVA): time-dependent up-regulation"
"H1: shRNA against αV integrin, 5′-CCGGGCCTTACAAATACAACAACAACTCGAGTTGTTGTTGTATTT GTAAGGCTTTTTG-3′ (CCGGGCCTTACAAATACAACAACAACTCGAGTTGTTGTTGTATTTGTAAGGCTTTTTG)",repressed,–,–

# Source: patent US9180139B2, “Regulator, pharmaceutical composition encompassing the regulator and application thereof” (NATIONAL CHENG KUNG UNIVERSITY, priority 2012, dated 2015)
